# Source: ChEMBL document CHEMBL4043226, “Design, synthesis and biological evaluation of benzamide and phenyltetrazole derivatives with amide and urea linkers as BCRP inhibitors” (Bioorg Med Chem Lett, 2017)
# Assays:
# [1] = Resistance index, ratio of mitoxantrone IC50 for human H460/MX20 cells to mitoxantrone IC50 for human H460 cells at 10 uM (reference value: 28.66)
# [2] = Resistance index, ratio of mitoxantrone IC50 for human H460/MX20 cells to mitoxantrone IC50 for human H460 cells at 1 uM (reference value: 28.66)
# NCI-H460 = assay: Cytotoxicity against human H460 cells after 72 hrs by MTT assay; assay type: cell-based; settings: NCI-H460, 72 h
# [3] = target: T1, Broad substrate specificity ATP-binding cassette transporter ABCG2 (Homo sapiens, UniProt Q9UNQ0); assay: Inhibition of BCRP (unknown origin) expressed in MCF-7 MX cells assessed as reduction in Hoechst 33342 accumulation preincubated for 30 mins followed by Hoechst 33342 addition measured every 60 secs up to 120 mins by fluorescence assay; assay type: cell-based
# T1 sequence (Q9UNQ0 whole entry): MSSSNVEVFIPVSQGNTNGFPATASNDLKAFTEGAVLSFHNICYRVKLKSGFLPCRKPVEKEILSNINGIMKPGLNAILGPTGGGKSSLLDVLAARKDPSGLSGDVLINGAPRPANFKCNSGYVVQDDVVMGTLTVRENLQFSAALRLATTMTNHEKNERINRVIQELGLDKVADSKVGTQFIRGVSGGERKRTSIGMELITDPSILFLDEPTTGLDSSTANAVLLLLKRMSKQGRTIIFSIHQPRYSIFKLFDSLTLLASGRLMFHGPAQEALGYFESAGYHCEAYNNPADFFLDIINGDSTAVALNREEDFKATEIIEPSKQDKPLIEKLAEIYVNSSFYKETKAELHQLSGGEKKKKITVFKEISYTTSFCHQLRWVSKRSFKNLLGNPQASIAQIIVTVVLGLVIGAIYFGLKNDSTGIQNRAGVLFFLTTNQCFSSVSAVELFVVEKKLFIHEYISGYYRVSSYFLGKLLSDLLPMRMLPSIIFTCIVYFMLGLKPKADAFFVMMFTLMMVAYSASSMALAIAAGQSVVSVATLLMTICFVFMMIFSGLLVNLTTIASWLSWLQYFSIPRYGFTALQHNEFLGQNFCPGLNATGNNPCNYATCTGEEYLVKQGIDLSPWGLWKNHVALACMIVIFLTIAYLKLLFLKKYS
# [4] = Cytotoxicity against human NCI-H460/MX20 cells after 72 hrs by MTT assay; assay type: cell-based; settings: NCI-H460/MX20, 72 h
# [5] = Resistance index, ratio of mitoxantrone IC50 for human H460/MX20 cells to mitoxantrone IC50 for human H460 cells at 3 uM (reference value: 28.66)
# [6] = target: T1, Broad substrate specificity ATP-binding cassette transporter ABCG2; assay: Inhibition of ABCG2 (unknown origin) expressed in high five insect cell membrane vesicles assessed as reduction in BCRP ATPase activity at 3 to 30 uM preincubated for 3 mins followed by ATP addition measured for 20 mins
# [7] = target: T1, Broad substrate specificity ATP-binding cassette transporter ABCG2; assay: Inhibition of ABCG2 (unknown origin) expressed in high five insect cell membrane vesicles assessed as reduction in BCRP ATPase activity up to 3 uM preincubated for 3 mins followed by ATP addition measured for 20 mins
# [8] = Inhibition of ABCG2 in human H460/MX20 cells assessed as potentiation of mitoxantrone induced antiproliferative activity by measuring mitoxantrone IC50 at 10 uM preincubated for 2 hrs followed by mitoxantrone addition measured after 72 hrs by MTT assay (reference value: 6.161 +/- 0.172 microM)
# ABCG2 (BCRP) = target: T2, ABCG2 (BCRP) (Homo sapiens, UniProt Q9UNQ0); assay: Activation of ABCG2 (unknown origin) expressed in high five insect cell membrane vesicles assessed as induction of basal BCRP ATPase activity at 10 uM preincubated for 3 mins followed by ATP addition measured for 20 mins relative to control; settings: High Five insect cell membrane vesicles expressing ABCG2, read-out: FC
# T2 sequence (Q9UNQ0 whole entry): T1 sequence (Q9UNQ0 whole entry)
# [9] = Inhibition of ABCG2 in human H460/MX20 cells assessed as potentiation of mitoxantrone induced antiproliferative activity by measuring mitoxantrone IC50 at 1 uM preincubated for 2 hrs followed by mitoxantrone addition measured after 72 hrs by MTT assay (reference value: 6.161 +/- 0.172 microM)
# [10] = target: T1, Broad substrate specificity ATP-binding cassette transporter ABCG2; assay: Inhibition of ABCG2 (unknown origin) expressed in high five insect cell membrane vesicles assessed as reduction in BCRP ATPase activity preincubated for 3 mins followed by ATP addition measured for 20 mins
# [11] = target: T1, Broad substrate specificity ATP-binding cassette transporter ABCG2; assay: Inhibition of ABCG2 (unknown origin) expressed in high five insect cell membrane vesicles assessed as reduction in basal BCRP ATPase activity up to 30 uM preincubated for 3 mins followed by ATP addition measured for 20 mins relative to control
Compound,Ratio IC50 [1],Ratio IC50 [2],IC50 (NCI-H460) [µM],IC50 [3] [µM],IC50 [4] [µM],Ratio IC50 [5],inhibition (INH) [6],inhibition (INH) [7],IC50 [8] [µM],"fold induction at 20 min, 10 µM (ABCG2 (BCRP))",IC50 [9] [µM],inhibition (INH) [10],fold change (FC) [11]
CCCc1ccc(NC(=O)c2ccccc2NC(=O)c2ccc([N+](=O)[O-])cc2)cc1,2.76,3.87,> 100,0.94,> 100,3.64,,,,,,,
CCCc1ccc(NC(=O)c2ccccc2NC(=O)Nc2ccc([N+](=O)[O-])cc2)cc1,1.51,2.89,> 100,,> 100,2.24,Active,Not Active,0.325,1.47,,,
COc1cccc(-n2nnc(-c3ccccc3NC(=O)Nc3ccc([N+](=O)[O-])cc3)n2)c1,1.87,3.87,> 100,,> 100,2.53,,,,1.94,0.832,Dose-dependent effect,
COc1cccc(-n2nnc(-c3ccccc3NC(=O)c3ccc(N)cc3)n2)c1,1.39,2.55,> 100,,> 100,2.28,,,,,,Dose-dependent effect,0.52
CCCc1ccc(NC(=O)c2ccccc2NC(=O)Nc2cccc([N+](=O)[O-])c2)cc1,1.62,3.03,> 100,,> 100,2.33,,,0.348,3.55,,Dose-dependent effect,
